Assay results published in US11504339B2, “Compositions comprising urolithin a and uses thereof in treating kidney injury” (priority 2020, dated 2022).

Assays:
[1] = test system: miRs and stress responsive genes; assay: Real-time PCR of renal cortex (miRs and stress responsive genes); assay type: in vivo, mouse
Method: Approximately 5 mg of kidney cortex was homogenized in Trizol solution. Micro RNA and large RNA were sequentially extracted and purified with E.Z.N.A. Micro RNA Kit (Omega Bio-tek, Norcross, Ga.) following manufacturer instructions. RNA concentrations were determined using the NanoQuant plate reader (Tecan Infinite M200). Reverse transcription for large RNA and miRNA were separately carried out using iScript gDNA Clear cDNA Synthesis Kit (Bio-Rad) and the miScript II RT Kit (Qiagen, Hilden, Germany), respectively. HiSpec Buffer was used in the latter RT reaction to target mature miRNA, and 1 μg of template RNA was used for all RT reactions. The CFX96 Touch Real-Time PCR Detection System (Bio-Rad) was used for qPCR. For gene expression, cDNA was amplified using appropriate primers (see Table 1), along with the iTaq Universal SYBR Green Supermix (Bio-Rad). Primers were pre-designed and validated by Harvard PGA Primerbank.
For miRNA expression, cDNA was amplified using miScript Primer Assays for miR-192-5p and miR-140-5p (Qiagen), along with the miScript SYBR Green PCR Kit (Qiagen). ΔCt values were calculated with β-actin (gene expression) or RNU6 (miRNA) normalization, and fold change of the gene of interest between groups was expressed as 2^−ΔΔCt.

intracellular NAD = assay: Intracellular NAD+ measurement in kidney cortex; assay type: in vivo, mouse; conditions: normalized to total protein
Method: Approximately 5 mg of kidney cortex from each mouse was homogenized in cold RIPA buffer. After centrifugation, approximately 50 μL of supernatant was processed in triplicate using Amplite Fluorimetric NAD Assay Kit (AAT Bioquest, Sunnyvale, Calif.) while following manufacturer instructions. Fluorescence at 420/480 nm was measured using the plate reader (Tecan Infinite M200) and NAD concentration determined using a standard curve constructed on the same day of the experiment. Protein concentration of the lysate was determined by the Bradford Assay (Bio-Rad) and served as normalization.

renal apoptosis = assay: TUNEL immunofluorescence of kidney sections; assay type: in vivo, mouse
Excerpt: Kidney sections were deparaffinized in xylene, rehydrated, and washed. After antigen retrieval, tissue sections were stained with fluorescein-labeled terminal deoxynucleotidyl transferase dUTP nick end labeling (TUNEL) kit (Roche, Mannheim, Germany). Slides were mounted using Vectashield Mounting Media containing DAPI (Vector Laboratories, Burlingame, Calif.). Tissue sections were imaged using the EVOS FL fluorescence microscope at 20× original magnification. TUNEL-positive cells from ten fields per kidney section and five sections per group of at least four animals were quantified using the ImageJ software's particle counter by thresholding for green fluorescence.

[2] = test system: CIS-resistant A2780 ovarian cancer cells; assay: Cell viability of cisplatin-resistant A2780 cells, UA plus CIS; assay type: cell-based; conditions: alone vs combination at the same concentrations
[3] = test system: NRF2, P53, mitochondrial OXPHOS complexes; assay: Western blot of kidney cortex; assay type: in vivo, mouse
Method: Approximately 5 mg of kidney cortex from each mouse was homogenized in cold RIPA buffer. After centrifugation, the supernatant was collected and protein concentration was determined using the Bradford assay (Thermo Scientific, Waltham, Mass.). Approximately 30 μg of protein was subjected to denaturing SDS-PAGE. The gel-separated proteins were transferred to a 0.45 μm nitrocellulose membrane, followed by standard Western blot protocol.
Primary antibodies Nrf2 (CAT #MBS2538072, MyBiosource, San Diego, Calif.), P53 (CAT #928, Cell Signaling Technology, Danvers, Mass.), and GAPDH (CAT #2118, Cell Signaling Technology) were diluted at 1:1000, while Total OXPHOS Cocktail (CAT #ab110413, Abcam, Los Angeles, Calif.) was diluted at 1:250. HRP-conjugated secondary antibodies (Thermo Scientific): goat anti-mouse IgG and anti-rabbit igG were diluted at 1:5000. The ECL reagent was used to develop protein signals, and images were captured by the ChemiDoc imaging system (Bio-Rad, Hercules, Calif.).

[4] = CIS control compared to the P2Ns-GA UA and negative control groups
[5] = CIS control compared with the P2Ns-GA UA and negative control groups
[6] = at sacrifice, normalized to U6 snRNA

N.N.[Cl][Pt][Cl] [CIS, Cis-diamminedichloridoplatinum]
renal expression of Mt1 (NRF2-inducible gene) [1, 4]: 8-12 fold
renal expression of Srxn1 (NRF2-inducible gene) [1, 4]: 4-5 fold
renal expression of Txnrd1 (NRF2-inducible gene) [1, 4]: 7-14 fold
renal expression of Atf3 (P53-inducible gene) [1, 5]: 3-4 fold
renal expression of Cdkn1a (P21) (P53-inducible gene) [1, 5]: 7-49 fold
renal expression of Trp53inp1 (SIP) (P53-inducible gene) [1, 5]: 9-12 fold
renal miR-140-5p expression [1, 6]: reductions
renal miR-192-5p expression [1, 6]: reductions
PARP1 expression ([1]; normalized to β-actin): elevated
expression of genes associated with hypoxia (HIF1α, Pgk1) ([1]; normalized to β-actin): decreased expression
intracellular NAD (intracellular NAD): reductions
renal apoptosis (TUNEL positive cells) (renal apoptosis): increased incidences
cell death / cell viability [2]: failed to cause cell death
mitochondrial complexes I, II, III, and IV / deficiencies in oxidative phosphorylation ([3]; Western blot, kidney cortex): marked decreases
renal expression of the NRF2 protein ([3]; compared to the P2Ns-GA UA and negative control groups): significantly higher

O=c1oc2cc(O)ccc2c2ccc(O)cc12 [UA, 3,8-Dihydroxybenzo[c]chromen-6-one]
cell death / cell viability [2]: failed to cause cell death
